In publication PMC8159961, “Exploring protein hotspots by optimized fragment pharmacophores” (Nature Communications, 2021):
Where “and” joins values, the source holds several entries; their conditions need not be identical. Identical values can stand only once. Like-named read-outs stand apart in the source and are kept apart here.

Key:
human thrombin = molecular target: T1, human thrombin (Homo sapiens, UniProt P00734); assay: Protease inhibitory assay, chromogenic substrate S-2238; format: biochemical; conditions: for vinit: replicate values; for Ki: Thrombin, one of two values averaged in Supplementary Data 1, read-out: Ki
T1 construct: human thrombin; purchased Sigma-Aldrich

bovine factor Xa = molecular target: T2, bovine factor Xa (Bos taurus, UniProt P00743); assay: Protease inhibitory assay, chromogenic substrate S-2222; format: biochemical; conditions: cmpd conc 200 µM; for vinit: replicate values; for Ki: FactorXa, one of two values averaged in Supplementary Data 1, read-out: Ki
T2 construct: bovine factor Xa, Chromogenix, 2 nkat/mL; purchased Chromogenix

[1] = Thrombin Ki determination, substrate 20 µM, cmpd conc 200 µM
[2] = Thrombin Ki determination, substrate 40 µM, cmpd conc 200 µM
[3] = Thrombin primary screening, substrate 40 µM, cmpd conc 500 µM
[4] = substrate 20 µM, cmpd conc 200 µM
[5] = substrate 40 µM, cmpd conc 200 µM
[6] = FactorXa primary screening, substrate 100 µM
[7] = FactorXa Ki determination, substrate 100 µM
[8] = FactorXa Ki determination, substrate 200 µM

T2 sequence (P00743 234-492 limits assumed): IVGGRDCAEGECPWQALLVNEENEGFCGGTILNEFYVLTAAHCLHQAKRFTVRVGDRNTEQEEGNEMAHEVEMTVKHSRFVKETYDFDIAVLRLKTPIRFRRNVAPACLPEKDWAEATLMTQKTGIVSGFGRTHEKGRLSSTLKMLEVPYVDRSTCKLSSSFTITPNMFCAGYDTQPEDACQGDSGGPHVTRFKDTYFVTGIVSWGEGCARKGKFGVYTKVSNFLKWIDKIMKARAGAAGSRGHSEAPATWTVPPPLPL
T2 sequence (P00743 41-180 partner limits assumed): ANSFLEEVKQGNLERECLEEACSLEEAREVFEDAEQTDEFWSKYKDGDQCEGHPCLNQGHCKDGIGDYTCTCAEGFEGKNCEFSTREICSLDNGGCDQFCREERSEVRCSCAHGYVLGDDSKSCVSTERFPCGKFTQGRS

SMILES | V0 / Vi (human thrombin; [3]) | vinit (human thrombin; [3]) | V0 / Vi (bovine factor Xa; [6]) | vinit (bovine factor Xa; [6]) | further results
NC(=O)N1CCC(C(=O)O)CC1 [SX-D12] | 1.12 | 28.036 and 28.145 | 1.16 | 11.2 and 13.7 | V0 / Vi (human thrombin; [1]): 1.08; vinit, avrg. (human thrombin; [1]): 24.461; vinit (human thrombin; [1]): 23.803 and 25.267 and 24.313; V0 / Vi (human thrombin; [2]): 1.04; vinit, avrg. (human thrombin; [2]): 32.560; vinit (human thrombin; [2]): 34.041 and 32.608 and 31.031; Ki (human thrombin; [4]): 273 µM; Ki (human thrombin; [5]): 329 µM
CC(=O)c1sc(-c2ccc(O)cc2)nc1C [SX-E1] | 1.10 | 25.309 and 28 | 1.17 | 15.455 and 14.545 | V0 / Vi (human thrombin; [1]): 1.09; vinit, avrg. (human thrombin; [1]): 24.296; vinit (human thrombin; [1]): 24.026 and 25.131 and 23.73; V0 / Vi (human thrombin; [2]): 1.06; vinit, avrg. (human thrombin; [2]): 31.885; vinit (human thrombin; [2]): 32.585 and 30.957 and 32.11; Ki (human thrombin; [4]): 251 µM; Ki (human thrombin; [5]): 207 µM; V0 / Vi (bovine factor Xa; [7]): 1.16; vinit, avrg. (bovine factor Xa; [7]): 14.048; vinit (bovine factor Xa; [7]): 13.804 and 13.836 and 14.50; V0 / Vi (bovine factor Xa; [8]): 1.13; vinit (bovine factor Xa; [8]): 32.734 and 31.114 and 32.88; Ki (bovine factor Xa; substrate 100 µM): 781 µM; Ki (bovine factor Xa; substrate 200 µM): 687 µM
O=C(c1ccncc1)N1CCNCC1 [SX-E2] | 0.93 | 31.236 and 31.673 | 0.96 | 17.673 and 18.8 | 
CC1C(=O)NC(=O)N1c1ccc(Cl)cc1 (centres unmarked) [SX-E3] | 0.98 | 29.964 and 29.673 | 1.01 | 17.673 and 16.982 | 
CCN(CC)c1cccc(C)c1 [SX-E4] | 0.95 | 31.418 and 31.2 | 0.95 | 17.571 and 18.5 | 
O=C(CN1CCNCC1)c1ccccc1 [SX-E5] | 1.06 | 28.618 and 27.418 | 0.97 | 18.286 and 17.357 | 
Clc1ccc2nnnn2n1 [SX-E6] | 0.99 | 32.073 and 28.473 | 1.12 | 15.357 and 15.429 | 
c1cnc2c(c1)NCCC2 [SX-E7] | 0.93 | 33.927 and 32.545 | 0.98 | 18.836 and 17.745 | 
COc1cccc(NC2=NCCCCC2)c1 [SX-E8] | 0.88 | 35.818 and 34.764 | 0.96 | 18.764 and 18.473 | 
O=C(O)C1CCN(c2ncccn2)CC1 [SX-E9] | 1.21 | 27.382 and 24 | 1.08 | 16.073 and 17.018 | V0 / Vi (human thrombin; [1]): 1.35; vinit, avrg. (human thrombin; [1]): 19.600; vinit (human thrombin; [1]): 19.72 and 18.944 and 20.14; V0 / Vi (human thrombin; [2]): 1.14; vinit, avrg. (human thrombin; [2]): 29.629; vinit (human thrombin; [2]): 27.932 and 30.186 and 30.77; Ki (human thrombin; [4]): 65 µM; Ki (human thrombin; [5]): 87 µM
N#Cc1ccc(C(=O)N2CCOCC2)cc1 [SX-E10] | 1.00 | 33.091 and 29.782 | 1.00 | 14.2 and 14.8 | 
Oc1ccc(C2CCNCC2)cc1 [SX-E11] | 1.00 | 31.345 and 31.818 | 0.73 | 18.742 and 20.658 | 
O=C(c1ccccc1F)N1CCNCC1 [SX-E12] | 0.98 | 32.036 and 31.782 | 1.28 | 11.3 | V0 / Vi (bovine factor Xa; [7]): 1.26; vinit, avrg. (bovine factor Xa; [7]): 12.944; vinit (bovine factor Xa; [7]): 12.386 and 12.902 and 13.544; V0 / Vi (bovine factor Xa; [8]): 1.17; vinit (bovine factor Xa; [8]): 30.668 and 30.24 and 32.808; Ki (bovine factor Xa; substrate 100 µM): 482 µM; Ki (bovine factor Xa; substrate 200 µM): 538 µM
COC(=O)c1c(C)nc(C2CC2)[nH]c1=O [SX-F1] | 1.06 | 25.964 and 29.418 | 0.96 | 17.6 and 18.945 | 
N#CC1CCS(=O)(=O)C1 (centres unmarked) [SX-F2] | 0.97 | 30.436 and 30.255 | 0.97 | 17.745 and 18.291 | 
O=C(O)c1cnc(-c2ccccc2)s1 [SX-F3] | 1.06 | 26.545 and 28.873 | 1.02 | 17.382 and 16.873 | V0 / Vi (human thrombin; [1]): 1.08; vinit, avrg. (human thrombin; [1]): 24.620; vinit (human thrombin; [1]): 23.206 and 25.134 and 25.52; V0 / Vi (human thrombin; [2]): 1.05; vinit, avrg. (human thrombin; [2]): 32.167; vinit (human thrombin; [2]): 32.686 and 32.577 and 31.24; Ki (human thrombin; [4]): 297 µM; Ki (human thrombin; [5]): 245 µM
N#CCCN1CCc2ccccc21 [SX-F4] | 1.01 | 31.2 and 28.109 | 1.01 | 16.857 and 17.357 | 
O=C(O)c1cccc(Nc2ncccn2)c1 [SX-F5] | 1.09 | 26.836 and 28 | 0.98 | 17.143 and 18.071 | 
O=C(Nc1ccccc1)C1CC1 [SX-F6] | 0.98 | 29.527 and 31.309 | 0.98 | 18 and 17.071 | 
Oc1nnc(-c2ccccc2)o1 [SX-F7] | 0.99 | 31.527 and 31.273 | 1.07 | 16.182 and 17.345 | 
Cc1nccn1Cc1cccc(C#N)c1 [SX-F8] | 0.91 | 34 and 33.891 | 0.98 | 18.582 and 18 | 
CC(CN)N1CCc2sccc2C1 (centres unmarked) [SX-F9] | 1.01 | 34.291 and 27.273 | 0.97 | 18.364 and 18.582 | 

SMILES | V0 / Vi (human thrombin; [3]) | vinit (human thrombin; [3]) | V0 / Vi (bovine factor Xa; [6]) | vinit (bovine factor Xa; [6]) | further results
NCC1(c2ccccc2)CCOCC1 [SX-F10] | 0.89 | 36.218 and 34.182 | 0.94 | 14.6 and 16.3 | 
Oc1cnc(-c2ccccc2)nc1 [SX-F11] | 1.02 | 30.836 and 30.8 | 1.00 | 14.672 and 14.2 | 
Cc1cc(C)c2c(=O)[nH]n(C)c2n1 [SX-F12] | 0.97 | 31.745 and 32.764 | 1.09 | 11.4 and 15 | 
COc1ccc(C2=CCNCC2)cc1 [SX-G1] | 1.03 | 31.055 and 32.691 | 0.93 | 19.4 and 17.2 | 
Cn1c(CO)nc2ccccc21 [SX-G2] | 1.00 | 32.764 and 33.018 | 0.96 | 18 and 17.3 | 
CN(C)c1cc(CN)ccn1 [SX-G3] | 0.92 | 35.564 and 35.891 | 0.93 | 17.9 and 18.5 | 
O=C(NC1CC1)c1ccccc1O [SX-G4] | 1.01 | 31.745 and 33.345 | 0.96 | 17.5 and 17.8 | 
c1ccc2sc(N3CCNCC3)nc2c1 [SX-G5] | 1.04 | 31.164 and 32.073 | 1.01 | 16.1 and 17.4 | 
O=C(O)C1CCCN(C(=O)N2CCCC2)C1 (centres unmarked) [SX-G6] | 1.18 | 27.345 and 28.364 | 1.09 | 16.1 and 15 | 
O=C1CCN(c2ccncc2)CC1 [SX-G7] | 0.90 | 36.109 and 37.055 | 1.03 | 17.5 and 15.6 | 
O=C1CCN(c2ccccn2)CC1 [SX-G8] | 0.99 | 33.236 | 0.97 | 18.3 and 16.6 | 
Nc1ccc(-c2ccccc2)cc1C(=O)O [SX-G9] | 1.08 | 29.309 and 31.745 | 1.04 | 16.3 | 
O=C(CN1CCCC1)c1ccccc1Cl [SX-G10] | 0.99 | 33.345 and 33.273 | 1.00 | 17.7 and 16.3 | 
CCc1nccn1CC(=O)O [SX-G11] | 1.02 | 32.764 and 31.636 | 1.08 | 16.214 and 15.4 | 
CS(=O)(=O)Nc1ccc(C(=O)O)cc1 [SX-G12] | 1.06 | 31.418 and 30.764 | 1.01 | 17.2 and 16.5 | 
O=C(O)c1ccc(CN2CCOCC2)cc1 [SX-H1] | 1.07 | 31.127 and 30.255 | 0.98 | 17.6 and 17 | 
O=C(O)CC1CCC(=O)N1 (centres unmarked) [SX-H2] | 1.12 | 30.691 and 28 | 1.01 | 17.5 and 16.3 | 
FC1(F)CNCC(F)(F)O1 [SX-H3] | 0.99 | 34.218 and 32.291 | 0.94 | 18.2 and 17.8 | 
Fc1ccc2c(C3CCNCC3)c[nH]c2c1 [SX-H4] | 0.95 | 34.909 and 34.764 | 0.92 | 18 and 18.9 | 
Oc1ccc(-n2cncn2)cc1 [SX-H5] | 1.00 | 33.091 and 32.545 | 1.05 | 16 and 16.3 | 
Cn1nc(C(F)(F)F)cc1O [SX-H6] | 1.11 | 29.345 and 30.109 | 1.13 | 14.3 and 15.9 | 
